These results are taken from paper PMC10523748, “Cytotoxicity, acute and sub-chronic toxicities of the leaves of Bauhinia thonningii (Schumach.) Milne-Redh. (Caesalpiniaceae)” (BMC Complementary Medicine and Therapies, 2023).

In data set [1] the test system is CCRF-CEM cells. Nature of the data set: Apoptosis, annexin V/PI staining and flow cytometry. Type of data set: cell-based, human. The note with it: 24 h, non-treated cells 0.4%. As for the experimental part: The concentration of samples used and CCRF-CEM cells were those as reported above under the standard cell culture conditions. To detect the apoptotic cells, the fluorescein isothiocyanate (FITC)-conjugated annexin V/PI assay kit (eBioscience™ Annexin V; Invitrogen, San Diego, USA) was applied to treated cells after 24 h incubation followed by the measurements with BD Accury C6 Flow Cytometer (BD Biosciences). The assays were performed separately three times and in triplicate.
Background: A flow cytometer gives signals particle by particle.

Data set [2] has as its system caspases 3/7 in CCRF-CEM cells. Nature of the data set: Caspase-Glo 3/7 assay. Type of data set: cell-based, human. The note with it: 6 h, versus untreated cells. As for the experimental part: (§1) The amount of the treated cells was 1.5 × 10^4 cells for the caspase 3/7 assay or 3 × 10^4 cells for the caspase 8 and caspase 9 assays in 100 µL. The treated cells were then incubated for 6 h under the standard cell culture conditions as described above. Subsequently, the activity of caspases was detected by a spectrophotometry measurement of luminescence using 100 µL caspase solution from the Caspase-Glo 3/7, 8, and 9 Assay kits (Promega, Mannheim, Germany) with an Infinite M2000 ProTM plate reader (Tecan).

The subject of data set [3] is caspase 8 in CCRF-CEM cells. Put plainly: Caspase-Glo 8 assay. Type of data set: cell-based, human. The note with it: 6 h, versus untreated cells. As for the experimental part:
as §1

The test system of data set [4] is caspase 9 in CCRF-CEM cells. Nature of the data set: Caspase-Glo 9 assay. Type of data set: cell-based, human. The note with it: 6 h, versus untreated cells. The protocol: as §1
Data set [5] concerns mitochondrial membrane potential (MMP) of CCRF-CEM cells. Nature of the data set: MMP analysis, JC-1 staining and flow cytometry. Type of data set: cell-based, human. The note with it: 24 h. The protocol:
(§2) The treated cells (1 mL; 1 × 10^6 cells) were incubated for 24 h under the standard cell culture condition. Cells were further stained for 30 min with 10 µL of staining solution ([…] or H2DCFH-DA solution for ROS evaluation) according to the manufacturer’s protocol. Using the LSRFortessa FACS analyzer (Becton–Dickinson, Heidelberg, Germany), the amount of 1 × 10^4 cells was further measured as described earlier.

Data set [6] concerns reactive oxygen species (ROS) production in CCRF-CEM cells. Nature of the data set: ROS production, H2DCFH-DA staining and flow cytometry. Type of data set: cell-based, human. The note with it: 24 h. As for the experimental part:
as §2

The test system of another data set is U87MG glioblastoma cells. Nature of the data set: RRA cytotoxicity, U87MG. The note with it: Homo sapiens, U-87 MG, 72 h.
In data set [7] the test system is HepG2 hepatocarcinoma cells. Nature of the data set: RRA cytotoxicity, HepG2. The note with it: Homo sapiens, HepG2, 72 h.
Data set [8] has as its system CEM/ADR5000 leukemia cells (P-gp-overexpressing). Nature of the data set: RRA cytotoxicity, CEM/ADR5000. The note with it: for IC50: Homo sapiens, ADR5000, 72 h; for Degree of resistance: IC50 CEM/ADR5000 versus CCRF-CEM.
The next data set concerns U87MG.ΔEGFR cells. Put plainly: RRA cytotoxicity, U87MG.ΔEGFR. The note with it: for IC50: Homo sapiens, 72 h.
Data set [9] relates to HCT116 p53^+/+ colon adenocarcinoma cells. Put plainly: RRA cytotoxicity, HCT116 p53^+/+. The note with it: Homo sapiens, HCT-116, 72 h.
For a further data set, the system named is HCT116 p53^−/− cells. Nature of the data set: RRA cytotoxicity, HCT116 p53^−/−. The note with it: for IC50: Homo sapiens, HCT-116, 72 h.
A further data set concerns MDA-MB-231-BCRP cells. Nature of the data set: RRA cytotoxicity, MDA-MB-231-BCRP. The note with it: for IC50: Homo sapiens, MDA-MB-231/BCRP, 72 h; for Degree of resistance: IC50 MDA-MB-231-BCRP versus MDA-MB-231-pcDNA.
Data set [10] deals with MDA-MB-231-pcDNA breast adenocarcinoma cells. Nature of the data set: RRA cytotoxicity, MDA-MB-231-pcDNA. The note with it: Homo sapiens, 72 h.
The subject of a further data set is normal AML12 hepatocytes. Put plainly: RRA cytotoxicity, normal AML12 hepatocytes. The note with it: Mus musculus, AML12, 72 h.
A further data set concerns CCRF-CEM leukemia cells. Nature of the data set: Resazurin reduction assay (RRA) cytotoxicity, CCRF-CEM. The note with it: 72 h.
The subject of data set [11] is CCRF-CEM cells. On the set-up: method as in PMID 12064912. The note with it: cited from earlier work.
The next data set deals with CEM/ADR5000 cells. On the set-up: method as in PMID 12064912. The note with it: cited from earlier work.
Data set [12] concerns 9 tested cancer cell lines. Nature of the data set: RRA cytotoxicity, whole panel of cancer cell lines. The note with it: 9 cancer cell lines, up to 50 µM.
The test system of data set [13] is human hepatocellular carcinoma HuH7 cells. The note with it: cited from earlier work.
The subject of a further data set is MCF-7 cells. On the set-up: method as in PMID 22213398. The note with it: cited from earlier work.
Data set [14] deals with cancer cell lines tested in the current work. More on the design: method as in PMID 30703492. The note with it: cited from earlier work.

Like-named read-outs stand apart in the source and are kept apart here.

The compound `COc1c(-c2ccc(O)cc2)oc2c(C)c(O)c(C)c(O)c2c1=O` [Compound 8, 6,8-C-dimethylkaempferol-3-methyl ether] yielded a melting point of 250 to 253 °C. For the same compound, the “Early apoptosis, annexin V (+)/PI (-) cells, highest proportion” value in the data set on CCRF-CEM cells [1] is listed as not above 67.3%. In addition, the “Increase of caspases 3/7 activity” value in [2] is listed as 4.41 fold. Besides, the “Increase of caspase 8 activity” value in data set [3] came out at 3.63 fold. Further, in data set [4], the “Increase of caspase 9 activity” value was 4.22 fold. Further, in data set [5], the “Effect on the integrity of the MMP” value is “strongly altered the integrity of the MMP”. For the same compound, the “Q1, cells with undamaged (intact) MMP” value in data set [5] (2 × IC50, untreated control 92.6%) is 23.0%. In [6], the “Effect on ROS production” value is recorded as “enhanced higher ROS production”. The same compound had an ROS level in data set [6] (2 × IC50, untreated cells 0.6%) of 24.50%. In addition, the IC50 with U87MG glioblastoma cells worked out at 8.01 ± 0.84 µM. In data set [7], this compound registered an IC50 of 19.4 ± 2.07 µM. In data set [8], this compound returned an IC50 of 2.42 ± 0.3 µM and a Degree of resistance of 0.80. In the data set with U87MG.ΔEGFR cells, this compound had an IC50 of 15.4 ± 0.64 µM. In the data set on U87MG.ΔEGFR cells (IC50 U87MG.ΔEGFR versus U87MG), the Degree of resistance is reported as 1.92. Further, the concentration for half-maximal inhibition (IC50) in data set [9] amounted to 9.59 ± 0.84 µM. Besides, in the data set on HCT116 p53^−/− cells, half-maximal inhibition (IC50) was put at 3.41 ± 0.35 µM. This compound also registered a Degree of resistance with HCT116 p53^−/− cells (IC50 HCT116 p53^−/− versus HCT116 p53^+/+) of 0.36. Besides, in the data set on MDA-MB-231-BCRP cells, the IC50 was 8.26 ± 0.66 µM and the Degree of resistance worked out at 3.53. For the same compound, inhibition in [10] was half-maximal at 2.34 ± 0.31 µM (IC50). The 50% inhibitory concentration (IC50) in the data set on normal AML12 hepatocytes is more than 50 µM. The same compound had a half-maximal inhibitory concentration (IC50) with CCRF-CEM leukemia cells (Homo sapiens) of 3.03 ± 0.37 µM.

Turning to `O=c1c(O)c(-c2ccc(O)c(O)c2)oc2cc(O)cc(O)c12` [Compound 4, quercetin], the half-maximal inhibitory concentration (IC50) in the data set on CCRF-CEM cells [11] was 25 µM; with CEM/ADR5000 cells, 101 µM; with U87MG glioblastoma cells, more than 50 µM; in data set [7], more than 50 µM; in data set [8], more than 50 µM; in the data set on U87MG.ΔEGFR cells, more than 50 µM. Moreover, the IC50 in data set [9] is more than 50 µM; in the data set on HCT116 p53^−/− cells, more than 50 µM; in the data set on MDA-MB-231-BCRP cells it was more than 50 µM; in data set [10], 42.3 ± 3.29 µM; with normal AML12 hepatocytes it was more than 50 µM; with CCRF-CEM leukemia cells it was 27.3 ± 3.12 µM. In the data set with CCRF-CEM leukemia cells (Homo sapiens), this compound registered an IC50 of 27 µM. Further, the Degree of resistance is given as more than 1.83 in [8] and more than 1.18 with MDA-MB-231-BCRP cells. The “Cytotoxic activity in the panel” value in [12] is on record as “selectively active”.

Take `C[C@H]1[C@H](C)CC[C@]2(C(=O)O)CC[C@]3(C)C(=CC[C@@H]4[C@@]5(C)CC[C@H](O)C(C)(C)[C@@H]5CC[C@]43C)[C@H]12` [Compound 9, ursolic acid]: the concentration for half-maximal inhibition (IC50) in data set [13] was 75 µM; in the data set with MCF-7 cells (MCF-7, converted from μg/mL, read-out: IC50), 15.6 µM; in the data set on MCF-7 cells (MCF-7), 7.1 µg/mL.

Regarding `CCC(CCC(C)C1CCC2C3CC=C4CC(OC5OC(CO)C(O)C(O)C5O)CCC4(C)C3CCC12C)C(C)C` [Compound 10, 3-O-β-D-glucopyranoside of β-sitosterol], the IC50 was more than 100 µM in data set [14]; more than 50 µM in the data set with U87MG glioblastoma cells; more than 50 µM in data set [7]; more than 50 µM in [8]; more than 50 µM in the data set on U87MG.ΔEGFR cells; more than 50 µM in data set [9]. Also, the half-maximal inhibitory concentration (IC50) in the data set on HCT116 p53^−/− cells was more than 50 µM; in the data set on MDA-MB-231-BCRP cells, more than 50 µM; in data set [10], more than 50 µM; with normal AML12 hepatocytes, more than 50 µM; in the data set on CCRF-CEM leukemia cells (Homo sapiens) it was 44.3 ± 3.91 µM. In [8], this compound registered a Degree of resistance of more than 1.13. Besides, the “Cytotoxic activity in the panel” value in data set [12] is “selectively active”.

By melting point is commonly meant the temperature, or range, at which the solid turns liquid. One may read the IC50 as the point on the concentration scale where inhibition reaches its midpoint.
